Test results taken from article PMC12848680, “Microbial Cross-Talk: Unlocking the Cytochalasin Diversity from a Termite-Associated Xylaria” (JACS Au, 2025).
Values after ≈ are worked out from the molar mass of the structure shown. Like-named read-outs stand apart in the source and are kept apart here.

What was measured:
[1] = in vitro; assay type: in vitro ADME, mouse; conditions: for microsomal CLint: C57BL/6, mouse, microsomes; for half-life: mouse, read-out: Mouse liver microsome t1/2
Protocol: Assays in liver microsomes: For metabolic stability, the compound (1 μM) was incubated with 0.5 mg/mL pooled mouse (C57BL/6) microsomes (Xenotech, Kansas City, USA), 2 mM NADPH, 10 mM MgCl2 at 37 °C for 120 min on a microplate shaker. The metabolic stability of testosterone, verapamil and ketoconazole were determined in parallel to confirm the enzymatic activity of mouse/rat liver microsomes. The incubation was stopped after defined time points by precipitation of aliquots of the incubation mixture with 2 volumes of cold internal standard solution (15 nM diphenhydramine in 10% methanol/acetonitrile). Samples were stored on ice until the end of the incubation and precipitated protein was removed by centrifugation (15 min, 4 °C, and 4,000 g). Concentration of the remaining test compound at the different time points was analyzed by HPLC-MS/MS (Vanquish Flex coupled to a TSQ Altis Plus, Thermo Fisher, Dreieich, Germany) and used to determine half-life (t1/2). […]

[2] = in vitro; assay type: in vitro ADME, mouse; conditions: 1 μM compound, pooled CD-1 mouse plasma, read-out: Mouse plasma t1/2
Protocol: Plasma stability assays: To determine stability in plasma, the compound (1 μM) was incubated with pooled CD-1 mouse plasma (Neo Biotech, Nanterre, France). Samples were taken by mixing aliquots with 4 volumes of cold internal standard solution (12.5 nM diphenhydramine in 10% methanol/acetonitrile). The plasma stability of procain, propantheline and diltiazem were determined in parallel to confirm the enzymatic activity. Samples were stored on ice until the end of the incubation and precipitated protein was removed by centrifugation (15 min, 4 °C, 4,000 g, two centrifugation steps). Concentration of the remaining test compound at the different time points was analyzed by HPLC-MS/MS (Vanquish Flex coupled to a TSQ Altis Plus, Thermo Fisher, Dreieich, Germany). […]

[3] = test system: A549 (human lung carcinoma cell line); assay: Cytotoxicity assay (MTT, 5 d) on A549; assay type: cell-based; conditions: for IC50: Homo sapiens, A549, 120 h, MTT, 5 d incubation
Protocol: (§1) Cytotoxicity assay: A549 (human lung carcinoma cell line; ACC 107) and CHO-K1 (chinese hamster ovary cells; ACC 110) were obtained from the German Collection of Microorganisms and Cell Cultures (DSMZ) and cultured under the conditions recommended by the depositor. Cells were propagated in Dulbeccos’s Modified Eagle’s Medium (DMEM) and Ham’s F12 medium, respectively, supplemented with 10% fetal bovine serum (FBS), and seeded at 6×10^3 cells per well of 96-well plates in 120 μL of complete medium. After 2 h of equilibration (37 °C, 5% CO2), the cells were treated with a serial dilution of cytochalasins in 60 µL growth medium. Cytochalasins, doxorubicin as reference, as well as the solvent control were tested as duplicates in two independent experiments. After 5 d of incubation (37 °C, 5% CO2), a total of 20 μL of 5 mg/ml MTT (thiazolyl blue tetrazolium bromide) in phosphate -buffered saline (PBS) were added to each well […]
(§2) and the cells were further incubated for 2 h at 37 °C before the supernatant was discarded.
(§3) Subsequently, the cells were washed with 100 μL of PBS and treated with 100 μl of 2-propanol/10 N HCl (250:1) to dissolve formazan granules. Cell viability was measured as percentage relative to the respective solvent control by measuring the absorbance at 570 nm using a microplate reader (Tecan Infinite M200Pro). GraphPad Prism (version 10.0.3, GraphPad, Boston, MA, USA) was used for sigmoidal curve fitting to determine the IC50 values.

[4] = test system: E. coli ΔacrB (JW0451-2); assay: Antibacterial activity against E. coli ΔacrB; assay type: cell-based; conditions: Escherichia coli, read-out: E. coli ΔacrB (JW0451-2) MIC
[5] = test system: Staphylococcus aureus Newman; assay: Antibacterial activity against S. aureus Newman; assay type: cell-based; conditions: Table S22
[6] = test system: CHO-K1 (chinese hamster ovary cells); assay: Cytotoxicity assay (MTT, 5 d) on CHO-K1; assay type: cell-based; conditions: Cricetulus griseus, CHO-K1, 120 h
Protocol: as §1, §2, §3

[7] = Table S22, intrinsic clearance calculated from microsomal metabolism data
[8] = Table S22, 1 μM compound, 0.5 mg/mL pooled C57BL/6 microsomes
[9] = Table 1, intrinsic clearance from microsomal metabolism data
[10] = Table 1, 1 μM compound, 0.5 mg/mL pooled C57BL/6 microsomes, 120 min

SMILES	microsomal CLint [1, 7]	half-life [1, 8]	half-life at 1 μM ([2]; Table S22)	IC50 ([3]; Table S22)	MIC [4]	MIC [5]	IC50 ([6]; Table S22, 5 d incubation)	microsomal CLint [1, 9]	half-life [1, 10]	half-life at 1 μM ([2]; Table 1)	IC50 ([3]; Table 1)	Cytotoxic activity against A549 (in words) ([3]; positive control doxorubicin)	IC50 ([6]; Table 1, 5 d incubation)	Mouse liver microsome t1/2 [1, 8]
CC1=C(C)C2C(Cc3ccccc3)NC(=O)C23C(O)C2OC2C(C)(O)C(=O)C(C)CC=CC3C1O (centres unmarked) [Compound 4, deacetyl-19,20-epoxycytochalasin C]	26.2 ± 0.1 µL/min/mg	53.1 ± 0.2 min	> 240 min	1.07 µg/mL (≈ 2.22 µM)	> 64 µg/mL	> 64 µg/mL	4.63 ± 4.23 µg/mL (≈ 9.61 µM)	–	–	–	–	–	–	–
CC1=C(C)C2C(Cc3cccc(Cl)c3)NC(=O)C23C(O)C2OC2C(C)(O)C(=O)C(C)CC=CC3C1O (centres unmarked) [Compound 12, m-chloro-deacetyl-19,20-epoxycytochalasin C]	39 ± 12 µL/min/mg	36 ± 10 min	> 240 min	> 37 µg/mL	> 64 µg/mL	> 64 µg/mL	2.02 ± 1.2 µg/mL (≈ 3.91 µM)	–	–	–	–	–	–	–
CC1CC=CC2C3OC3(C)C(C)C3C(Cc4ccccc4)NC(=O)C23C(O)C2OC2C(C)C1=O (centres unmarked) [Compound 1, deacetyl-18-desoxy-19,20-epoxycytochalasin Q]	102 ± 13 µL/min/mg	13.8 ± 1.8 min	> 240 min	0.32 ± 0.1 µg/mL (≈ 0.687 µM)	> 64 µg/mL	> 64 µg/mL	1.21 ± 0.31 µg/mL (≈ 2.6 µM)	–	–	–	–	–	–	–
C[C@H]1C/C=C/[C@H]2[C@@H]3O[C@]3(C)[C@@H](C)[C@H]3[C@H](Cc4ccccc4Br)NC(=O)[C@]32C(=O)C[C@@H](O)[C@@](C)(O)C1=O [Compound 21, o-bromo-19-hydroxy-21-oxocytochalasin Q]	124 ± 9 µL/min/mg	11.2 ± 0.8 min	> 240 min	0.79 ± 0.24 µg/mL (≈ 1.41 µM)	> 64 µg/mL	> 64 µg/mL	3.04 ± 0.18 µg/mL (≈ 5.42 µM)	–	–	–	–	–	–	–
CC1CC=CC2C3OC3(C)C(C)C3C(Cc4cccc(Cl)c4)NC(=O)C23C(O)C2OC2C(C)(O)C1=O (centres unmarked) [Compound 15, m-chloro-deacetyl-19,20-epoxycytochalasin Q]	–	–	–	0.08 ± 0.03 µg/mL (≈ 0.155 µM)	> 64 µg/mL	> 64 µg/mL	–	39 ± 3 µL/min/mg	36 ± 3 min	> 240 min	0.04 ± 0.03 µg/mL (≈ 0.0775 µM)	lower nanomolar activities	0.81 ± 0.1 µg/mL (≈ 1.57 µM)	–
CC(=O)OC1C2OC2C(C)(O)C(=O)C(C)CC=CC2C(O)C(C)=C(C)C3C(CC(=O)O)NC(=O)C213 (centres unmarked) [Compound 22, xylachalasin A]	< 11.6 µL/min/mg	–	–	–	> 64 µg/mL	> 64 µg/mL	–	–	> 120 min	> 240 min	> 37 µg/mL	–	> 37 µg/mL	>120 min
CC(=O)OC1C2OC2C(C)C(=O)C(C)CC=CC2C3OC3(C)C(C)C3C(Cc4cccc(Cl)c4)NC(=O)C213 (centres unmarked) [Compound 16, m-chloro-18-desoxy-19,20-epoxycytochalasin Q]	–	–	–	1.02 ± 0.13 µg/mL (≈ 1.88 µM)	> 64 µg/mL	> 64 µg/mL	3.13 ± 2.94 µg/mL (≈ 5.77 µM)	984 ± 105 µL/min/mg	1.4 ± 0.1 min	> 240 min	0.08 ± 0.02 µg/mL (≈ 0.148 µM)	–	0.41 ± 0.1 µg/mL (≈ 0.756 µM)	–
CC(=O)OC1C2OC2C(C)(O)C(=O)C(C)CC=CC2C3OC3(C)C(C)C3C(Cc4ccccc4)N(C(C)=O)C(=O)C213 (centres unmarked) [Compound 24, N-acetyl-19,20-epoxycytochalasin Q]	558 ± 58 µL/min/mg	2.5 ± 0.3 min	> 240 min	0.72 ± 0.12 µg/mL (≈ 1.27 µM)	> 64 µg/mL	> 64 µg/mL	3.06 ± 0.5 µg/mL (≈ 5.41 µM)	–	–	–	–	–	–	–
COc1cccc2c1C(=O)c1c(O)c3c(c(O)c1C2=O)C[C@@](O)(C(=O)CO)C[C@@H]3O[C@H]1C[C@H](N)[C@H](O)[C@H](C)O1 [doxorubicin, reference compound]	–	–	–	–	–	–	–	–	–	–	0.3 µg/mL (≈ 0.552 µM)	–	–	–
C=C1C(C)C2C(Cc3ccccc3)NC(=O)C23C(C=CCC(C)C(=O)C(C)(O)C2OC2C3OC(C)=O)C1O (centres unmarked) [Compound 9, 19,20-epoxycytochalasin D]	–	–	–	–	> 64 µg/mL	> 64 µg/mL	–	35 ± 3 µL/min/mg	40 ± 3.7 min	> 240 min	–	–	10.3 ± 5.07 µg/mL (≈ 19.8 µM)	–
